Our source for the AC50, IC50 and EC50 values is ChEMBL document CHEMBL1201862, “PubChem BioAssay data set” (2004).

The nature of experiment [1]: cytotoxicity in OV-90 ovarian cancer cells, dose response, PAX8 inhibitor project, cell-based, plate reader, dry powder, SA8 (AID 743149). It is filed as functional.
A short description of experiment [2]: cytotoxicity in COV362 ovarian cancer cells, dose response, cytotoxicity control for PAX8 inhibitor project, cell-based, plate reader, dry powder, SA12 (AID 743144). It is filed as functional.
Experiment [3] is described as follows: PAX5 activity inhibitors, dose response, selectivity assay for PAX8 inhibitor project, cell-based, plate reader, dry powder samples (AID 743047).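 Further: HEK293 cells carrying a Pax5 driven CD19 promoter luciferase reporter; potency of inhibitors that lower reporter luminescence.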 It is filed as functional.
The next experiment addresses Paired box protein Pax-8 (Homo sapiens, UniProt Q06710). The experiment is described as follows: inhibitors of PAX8-driven TPO luciferase reporter, dose response, RMG-I cells, cherry-pick (AID 687027).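 Further: luciferase reporter driven by Pax8 target thyroperoxidase promoter measured by SteadyGlo luminescence.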 The experiment is classed as functional, cell-based. A general note: Reporter assays use an easily measured gene product as a stand-in for the process of interest.
A short description of experiment [4]: PAX2 cell-based inhibition, dose response, selectivity assay for PAX8 inhibitor project, plate reader, dry powder samples (AID 743048).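 Further: HEK293 cells carrying a WT1 promoter luciferase reporter driven by expressed Pax2; potency is for inhibition of Pax2 driven reporter signal.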 The experiment is classed as functional.
Experiment [5] is described as follows: NIH:OVCAR-3 ovarian cancer cell cytotoxicity, dose response, PAX8 inhibitor project, plate reader, dry powder samples (AID 743044). It is filed as functional, cell-based.
A short description of experiment [6]: cytotoxicity dependent on PAX8, dose response, cell-based, plate reader, dry powder (AID 743049). The experiment is classed as functional.
The nature of experiment [7]: cytotoxicity in COV434 cells, dose response, cytotoxicity control for PAX8 inhibitor project, cell-based, plate reader, dry powder, SA7 (AID 743145). It is filed as functional.
Experiment [8] can be described thus: half-maximal inhibitory concentration for glucagon-like peptide-1 release, STC-1 cell line, dose-response (AID 1117345). The experiment is classed as functional, cell-based.
The nature of experiment [9]: Glucagon-like peptide 1 release potency, NCI-H716 cell line, dose-response, half-maximal inhibitory concentration (AID 1117344). The experiment is classed as functional, cell-based.
The target in experiment [10] is RNA-editing ligase 1, mitochondrial (Trypanosoma brucei brucei, UniProt P86926). Kind of experiment: TbREL1 ligase inhibitors, dose response, biochemical, fluorescence, Trypanosoma brucei (AID 1117295). It is filed as functional.
Experiment [11] concerns the target Protein disulfide-isomerase (Homo sapiens, UniProt P07237). Kind of experiment: PDI inhibitors, insulin turbidity readout, confirmation, biochemical, dry powder samples, set 2 (AID 652146).
In experiment [12] the target is Endoplasmic reticulum aminopeptidase 1 (Homo sapiens, UniProt Q9NZ08). The experiment is described as follows: ERAP1 aminopeptidase inhibitors, dose response, biochemical, cherry-pick, set 2, plate reader (AID 743314).
A short description of experiment [13]: cells. The experiment is classed as functional, cell-based.
The nature of experiment [14]: cells. The experiment is classed as functional, cell-based. This is another data set of the same source.
The target in experiment [15] is Disintegrin and metalloproteinase domain-containing protein 17 (Homo sapiens, UniProt P78536). Kind of experiment: exosite inhibitors of ADAM17, dose response, biochemical (AID 743260).
Experiment [16] can be described thus: ADAM10 protease inhibitors, dose response, selectivity assay for ADAM17 exosite inhibitor project, biochemical, FRET peptide substrate, recombinant human ADAM10 (AID 743259).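 Further: ADAM10 enzyme cleaving a FRET peptide substrate.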
Experiment [17] can be described thus: Luminescence Cell-Based Dose Response HTS to Identify Inhibitors of 5'UTR Stem-Loop Driven Prion Protein mRNA Translation in H4 Neuroglioblastoma Cells. [Related pubchem assays: 1827 (Project Summary), 1813 (Primary HTS)]. The experiment is classed as functional.
Experiment [18] in a line: cells.
In experiment [19] the target is T1, RNA-binding protein pos-1 (Caenorhabditis elegans, UniProt G5EF15).
T1 sequence (G5EF15 whole entry): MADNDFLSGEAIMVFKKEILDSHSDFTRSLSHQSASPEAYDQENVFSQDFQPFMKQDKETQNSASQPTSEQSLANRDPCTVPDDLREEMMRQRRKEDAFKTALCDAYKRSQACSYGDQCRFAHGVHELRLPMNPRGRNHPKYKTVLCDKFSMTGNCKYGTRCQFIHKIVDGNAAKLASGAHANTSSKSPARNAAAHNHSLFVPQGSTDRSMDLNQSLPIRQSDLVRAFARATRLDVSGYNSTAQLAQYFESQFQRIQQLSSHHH
Kind of experiment: inhibitors of POS-1/mex-3 RNA binding, dose response, biochemical, fluorescence polarization (AID 1964).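 Further: purified POS-1 fused to maltose binding protein made in E. coli; potency of compounds blocking POS-1 binding to fluorescent RNA.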 On the technique in general: Fluorescence polarisation rises when a labelled molecule tumbles more slowly, as on binding a larger partner.

Experiment [20] deals with T2, Oxysterols receptor LXR-beta (Homo sapiens, UniProt P55055).
T2 sequence (P55055 whole entry): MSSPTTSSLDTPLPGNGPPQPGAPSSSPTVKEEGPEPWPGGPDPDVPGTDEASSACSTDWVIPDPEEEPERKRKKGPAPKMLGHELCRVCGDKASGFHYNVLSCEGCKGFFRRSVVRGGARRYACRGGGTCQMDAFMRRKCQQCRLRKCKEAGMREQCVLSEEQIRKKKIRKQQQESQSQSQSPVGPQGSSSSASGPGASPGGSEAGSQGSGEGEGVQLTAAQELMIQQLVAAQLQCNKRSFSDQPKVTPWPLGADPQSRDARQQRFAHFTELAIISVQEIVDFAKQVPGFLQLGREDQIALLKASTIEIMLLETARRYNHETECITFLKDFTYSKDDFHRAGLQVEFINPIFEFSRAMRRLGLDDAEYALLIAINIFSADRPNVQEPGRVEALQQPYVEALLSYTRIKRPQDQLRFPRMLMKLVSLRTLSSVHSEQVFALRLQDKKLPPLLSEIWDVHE
It is filed as functional, cell-based.

The target in experiment [21] is T3, Zinc finger protein mex-5 (Caenorhabditis elegans, UniProt Q9XUB2).
T3 sequence (Q9XUB2 whole entry): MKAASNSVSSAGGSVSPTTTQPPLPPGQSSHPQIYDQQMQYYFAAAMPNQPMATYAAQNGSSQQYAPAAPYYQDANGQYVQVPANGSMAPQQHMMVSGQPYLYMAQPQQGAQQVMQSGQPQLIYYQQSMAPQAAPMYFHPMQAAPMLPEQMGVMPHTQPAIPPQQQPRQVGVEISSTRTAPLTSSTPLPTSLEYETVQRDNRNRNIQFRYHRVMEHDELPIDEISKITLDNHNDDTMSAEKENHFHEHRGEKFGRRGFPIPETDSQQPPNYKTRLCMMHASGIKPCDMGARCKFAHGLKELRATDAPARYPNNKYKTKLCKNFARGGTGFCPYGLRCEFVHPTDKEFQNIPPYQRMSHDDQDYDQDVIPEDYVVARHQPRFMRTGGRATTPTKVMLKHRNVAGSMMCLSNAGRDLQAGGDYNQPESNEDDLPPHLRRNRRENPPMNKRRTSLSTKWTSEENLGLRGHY
Kind of experiment: MEX-5/TCR-2 RNA interaction inhibitors, dose response, biochemical, C. elegans, fluorescence polarization (AID 1960).

Experiment [22] can be described thus: inhibitors of SNCA 5'UTR-driven reporter translation, confirmation, H4 neuroglioma cells, luminescence (AID 1988). It is filed as functional, cell-based.
A short description of experiment [23]: Luminescence-based cell-based high throughput dose response assay to identify activators of the DAF-12 from the parasite S. stercoralis (ssDAF-12). The experiment is classed as functional.
Experiment [24] can be described thus: HEK293T cytotoxicity, dose response, cytotoxicity control for miR-122 modulator project, cell-based, activator set, cherry-pick (AID 720690).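 Further: HEK293T human cells scored for general mammalian cytotoxicity.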 It is filed as functional.

Molecules are shown by their SMILES. Active and inactive are the calls of the source.

Sequence of Protein disulfide-isomerase (P07237 whole entry): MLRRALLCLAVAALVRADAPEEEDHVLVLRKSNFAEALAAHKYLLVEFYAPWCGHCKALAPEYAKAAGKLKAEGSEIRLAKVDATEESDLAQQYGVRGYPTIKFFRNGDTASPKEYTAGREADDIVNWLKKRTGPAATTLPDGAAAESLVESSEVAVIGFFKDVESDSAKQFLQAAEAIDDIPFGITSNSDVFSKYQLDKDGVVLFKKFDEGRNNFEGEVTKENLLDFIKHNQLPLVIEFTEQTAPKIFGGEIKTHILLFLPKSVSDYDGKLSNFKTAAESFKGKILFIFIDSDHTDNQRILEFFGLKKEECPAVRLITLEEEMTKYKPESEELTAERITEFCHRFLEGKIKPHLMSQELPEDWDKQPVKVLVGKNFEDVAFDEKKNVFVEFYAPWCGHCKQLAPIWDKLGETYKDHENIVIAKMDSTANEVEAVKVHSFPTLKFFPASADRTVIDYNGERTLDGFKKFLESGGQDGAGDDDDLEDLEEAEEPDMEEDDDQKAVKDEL
Sequence of Paired box protein Pax-8 (Q06710 whole entry): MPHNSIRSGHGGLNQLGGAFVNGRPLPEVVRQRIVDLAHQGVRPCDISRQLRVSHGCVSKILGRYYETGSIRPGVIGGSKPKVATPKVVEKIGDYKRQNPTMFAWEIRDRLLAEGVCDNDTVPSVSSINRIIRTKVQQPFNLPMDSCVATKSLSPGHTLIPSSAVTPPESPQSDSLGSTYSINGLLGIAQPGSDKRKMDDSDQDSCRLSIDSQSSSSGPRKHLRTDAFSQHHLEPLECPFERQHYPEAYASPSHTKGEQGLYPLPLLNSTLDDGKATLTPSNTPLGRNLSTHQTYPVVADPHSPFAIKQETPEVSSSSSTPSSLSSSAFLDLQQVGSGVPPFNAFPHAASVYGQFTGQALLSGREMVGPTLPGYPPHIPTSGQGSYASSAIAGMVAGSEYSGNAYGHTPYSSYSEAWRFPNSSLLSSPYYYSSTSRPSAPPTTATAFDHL
Sequence of Endoplasmic reticulum aminopeptidase 1 (Q9NZ08 whole entry): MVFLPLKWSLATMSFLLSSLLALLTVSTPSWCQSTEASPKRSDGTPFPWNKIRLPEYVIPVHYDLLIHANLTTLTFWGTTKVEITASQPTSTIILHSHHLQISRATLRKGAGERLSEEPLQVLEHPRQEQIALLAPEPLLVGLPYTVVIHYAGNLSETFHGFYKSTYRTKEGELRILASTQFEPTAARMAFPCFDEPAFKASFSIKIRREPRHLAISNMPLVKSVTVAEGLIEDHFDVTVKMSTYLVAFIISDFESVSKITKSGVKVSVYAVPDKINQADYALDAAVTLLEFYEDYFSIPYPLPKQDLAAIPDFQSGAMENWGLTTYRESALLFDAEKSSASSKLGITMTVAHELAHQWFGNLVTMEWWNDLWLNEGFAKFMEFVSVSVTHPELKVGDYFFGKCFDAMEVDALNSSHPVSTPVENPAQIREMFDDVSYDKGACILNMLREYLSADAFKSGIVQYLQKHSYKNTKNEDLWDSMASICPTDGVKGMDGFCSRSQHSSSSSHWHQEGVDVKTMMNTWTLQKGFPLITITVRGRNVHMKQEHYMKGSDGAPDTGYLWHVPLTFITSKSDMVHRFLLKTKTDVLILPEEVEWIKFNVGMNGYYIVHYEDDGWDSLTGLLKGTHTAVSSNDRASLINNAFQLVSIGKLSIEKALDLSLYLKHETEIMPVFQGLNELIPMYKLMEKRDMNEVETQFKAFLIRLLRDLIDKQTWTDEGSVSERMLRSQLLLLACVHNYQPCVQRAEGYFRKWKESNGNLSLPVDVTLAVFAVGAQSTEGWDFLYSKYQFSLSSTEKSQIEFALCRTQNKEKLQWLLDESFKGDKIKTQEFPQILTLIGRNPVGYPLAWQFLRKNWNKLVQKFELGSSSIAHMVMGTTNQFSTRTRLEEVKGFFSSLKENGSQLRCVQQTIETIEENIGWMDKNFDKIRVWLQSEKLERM
Sequence of RNA-editing ligase 1, mitochondrial (P86926 whole entry): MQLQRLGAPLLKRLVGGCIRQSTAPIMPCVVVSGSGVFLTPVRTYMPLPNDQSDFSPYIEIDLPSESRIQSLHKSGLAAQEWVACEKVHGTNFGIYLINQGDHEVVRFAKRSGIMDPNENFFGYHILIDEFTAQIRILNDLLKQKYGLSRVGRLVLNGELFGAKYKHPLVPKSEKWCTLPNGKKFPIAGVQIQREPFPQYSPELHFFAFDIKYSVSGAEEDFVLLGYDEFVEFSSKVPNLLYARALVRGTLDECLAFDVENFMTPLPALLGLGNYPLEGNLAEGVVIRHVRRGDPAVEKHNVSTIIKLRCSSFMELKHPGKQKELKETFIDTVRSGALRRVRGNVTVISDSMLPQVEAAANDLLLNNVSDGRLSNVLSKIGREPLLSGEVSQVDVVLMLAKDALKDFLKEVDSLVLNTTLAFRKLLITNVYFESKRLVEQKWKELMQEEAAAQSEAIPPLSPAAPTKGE
Sequence of Disintegrin and metalloproteinase domain-containing protein 17 (P78536 whole entry, the tested form may be a part): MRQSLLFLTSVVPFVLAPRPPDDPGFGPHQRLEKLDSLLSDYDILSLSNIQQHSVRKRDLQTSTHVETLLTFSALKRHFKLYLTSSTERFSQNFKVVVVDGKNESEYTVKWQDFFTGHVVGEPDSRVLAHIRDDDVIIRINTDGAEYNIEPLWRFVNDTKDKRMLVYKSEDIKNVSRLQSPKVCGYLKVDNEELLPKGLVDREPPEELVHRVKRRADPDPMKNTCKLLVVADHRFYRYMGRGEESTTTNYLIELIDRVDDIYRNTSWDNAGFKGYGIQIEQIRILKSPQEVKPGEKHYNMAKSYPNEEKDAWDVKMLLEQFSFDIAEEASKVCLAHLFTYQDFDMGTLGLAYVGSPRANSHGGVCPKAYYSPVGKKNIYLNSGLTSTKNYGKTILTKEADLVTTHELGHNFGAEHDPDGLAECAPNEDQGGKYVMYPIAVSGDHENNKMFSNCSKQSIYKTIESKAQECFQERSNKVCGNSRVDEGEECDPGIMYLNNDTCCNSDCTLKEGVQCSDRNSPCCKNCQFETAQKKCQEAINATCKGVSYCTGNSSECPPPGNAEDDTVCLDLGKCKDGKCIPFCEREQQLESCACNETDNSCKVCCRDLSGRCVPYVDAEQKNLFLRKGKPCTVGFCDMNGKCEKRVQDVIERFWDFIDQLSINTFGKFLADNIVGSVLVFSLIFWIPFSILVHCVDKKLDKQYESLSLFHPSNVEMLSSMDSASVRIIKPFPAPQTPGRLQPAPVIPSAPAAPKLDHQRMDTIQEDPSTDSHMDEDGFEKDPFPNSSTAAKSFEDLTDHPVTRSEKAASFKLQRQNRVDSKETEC

Broadly, the AC50 is the midpoint of the concentration-response curve, whichever way the signal moves. With `CCCC#Cc1ccc([C@@H]2[C@H](C#N)N(S(=O)(=O)c3cccc(F)c3)[C@H]2CO)cc1`, the AC50 in experiment [1] is 26.9 µM (active); in [2], 35.2 µM (active); in [3], 14.2 µM (active); on Paired box protein Pax-8, 5.57 µM (active); in [4], 15.6 µM (active); in experiment [5], 31.9 µM (active). In addition, the AC50 in experiment [6] is 17 µM (active); in experiment [7] it was 63.8 µM (active).

In general, IC50 refers to the midpoint of a concentration-inhibition curve. For `CCCOC(C(=O)OC1CCN(C)CC1)(c1ccccc1)c1ccccc1`, the IC50 in experiment [8] was 23.8 µM (inactive); in experiment [9], > 40 µM (inactive).

Turning to `CCC(C)NC(=O)C1CCN(S(=O)(=O)c2ccc3[nH]c(=O)oc3c2)CC1` (stereo not drawn), the IC50 in experiment [10] is 19.7 µM (inactive).

Take `O=C(N1CCCC1)C1(CCOc2ccccc2)CCN(Cc2ccc(O)c(Cl)c2)CC1`: in experiment [11], the AC50 is > 30 µM (inactive).

Regarding `C=CCOc1ccc(CN2CCC(CCOc3ccccc3)(C(=O)NC3CCCC3)CC2)cc1Cl`, the AC50 in experiment [11] is > 30 µM (inactive).

On to `COc1ccc(S(=O)(=O)N(C)C[C@@H]2Oc3ncccc3C(=O)N([C@H](C)CO)C[C@@H]2C)cc1`, for which the AC50 in experiment [12] is 8.41 µM (active).

As a reminder, the EC50 is the concentration at which the effect is half-maximal. Take `CC(C)Cn1c(O)cc(=O)nc1SCC(=O)N1CCc2ccccc2C1`: the EC50 in the experiment “cells [13]” is > 29.9 µM (inactive). The IC50 in “cells [14]” is > 29.9 µM (inactive).

As to `Cc1ccc(S(=O)(=O)N2C[C@H]3C(=O)C[C@@H](c4ccccc4)N(S(=O)(=O)c4ccc(C)cc4)[C@H]3C[C@H]2c2cccc3ccccc23)cc1`, the IC50 in [15] and in [16] was > 69.5 µM (inactive) in each case.

Consider `O=C1c2ccccc2C(=O)C1c1ccc2ccccc2n1`, for which the EC50 in [17] was 7.02 µM (active); in “cells [18]” it was > 67.5 µM (inactive); in [19], > 300 µM (not active); in [20], > 67.5 µM (inactive); in experiment [21], > 300 µM (not active); in experiment [22] it was 3.11 µM (active). In addition, the IC50 in [23] is > 67.5 µM (inactive).

On to `Oc1cccc(-c2nnc(-c3cccc(O)c3)nn2)c1`, for which the EC50 (in the experiment “cells [18]”; in [20]) was > 67.6 µM (inactive) each time.

`O=C(C1CCCCC1)N1C[C@@H]2[C@H](c3ccccc31)[C@H](CO)N2Cc1ccccc1Cl`: the AC50 in [24] is 27.1 µM (active).
